Test results from PMC3123319, “Insights into the Regulatory Characteristics of the Mycobacterial Dephosphocoenzyme A Kinase: Implications for the Universal CoA Biosynthesis Pathway” (PLoS ONE, 2011).

Target: T1, dephosphocoenzyme A kinase (CoaE) (Mycobacterium tuberculosis, UniProt P9WPA3)
T1 sequence (P9WPA3 1-407): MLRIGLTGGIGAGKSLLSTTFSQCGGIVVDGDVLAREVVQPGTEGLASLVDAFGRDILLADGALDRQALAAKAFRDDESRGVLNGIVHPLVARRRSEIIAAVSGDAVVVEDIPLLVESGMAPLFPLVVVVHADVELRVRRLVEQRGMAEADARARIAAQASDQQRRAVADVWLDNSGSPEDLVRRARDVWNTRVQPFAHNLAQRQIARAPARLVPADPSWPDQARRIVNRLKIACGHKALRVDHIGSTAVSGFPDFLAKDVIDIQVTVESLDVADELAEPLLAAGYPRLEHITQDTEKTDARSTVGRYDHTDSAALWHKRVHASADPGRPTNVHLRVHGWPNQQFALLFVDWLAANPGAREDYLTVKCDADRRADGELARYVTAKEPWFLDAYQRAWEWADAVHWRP
Experiment: coupled PK-LDH spectrophotometric assay, Dixon plot; supported by tryptophan fluorescence quenching, SEC and limited proteolysis
Assay type: biochemical

In the case of Nc1ccn([C@@H]2O[C@H](COP(=O)(O)OP(=O)(O)OP(=O)(O)O)[C@@H](O)[C@H]2O)c(=O)n1 [CTP], the Ki is reported as 34 µM.
